Assay results reported in PMC11111895, “Identification of a dCache-type chemoreceptor in Campylobacter jejuni that specifically mediates chemotaxis towards methyl pyruvate” (Frontiers in Microbiology, 2024).

How the values were obtained:
Tlp11-LBD T320A = test: MST of Tlp11-LBD mutant T320A; type: binding, C. jejuni ATCC 33560; settings: max ligand 2.5 mM
Protocol: (§1) The His-tag dye (MO-L018 RED-tris-NTA, NanoTemper, Germany) was adjusted to a final concentration of 25 nM and used to label the purified protein with a His-tag. The compound was diluted to a series of concentrations in phosphate-buffered saline ([Duan et al., 2023]) with 0.05% Tween 20 (PBS-T) buffer and mixed in a ratio of 1:1 with protein. The mixtures were loaded into capillaries (Monolith™ Series capillaries, NanoTemper) by means of capillary action. Thermophoresis was measured using a Monolith™ NT.115 (NanoTemper) instrument, with 40% excitation and 40% MST power configuration. The time-traces of changes in fluorescence, which reflected the thermophoretic movement of labeled protein affected by different concentrations of compound were recorded, and the dose–response curves were fitted with the ‘temperature jump and thermophoresis’ mode. Data analysis was performed using MO. Affinity Analysis version 2.3 (NanoTemper) and Prism version 8.0.2 (GraphPad Software, United States).
In order to confirm the contribution of L264, N268, I276, Y291, V318, and T320 to the binding to methyl pyruvate, we generated Tlp11-LBD proteins with an alanine point mutation at individual residues, to obtain the mutant proteins L264A, N268A, I276A, Y291A, V318A, and T320A, and then analyzed the binding affinities of methyl pyruvate to these mutants using MST. […]

[1] = biological target: Tlp11-LBD homologue (WP_115570384.1, residues 34-332) (Helicobacter equorum, UniProt A0A3D8ITS8); test: MST of Tlp11-LBD homologue; type: binding
Tlp11-LBD homologue (WP_115570384.1, residues 34-332), sequence (A0A3D8ITS8 entry or part of it): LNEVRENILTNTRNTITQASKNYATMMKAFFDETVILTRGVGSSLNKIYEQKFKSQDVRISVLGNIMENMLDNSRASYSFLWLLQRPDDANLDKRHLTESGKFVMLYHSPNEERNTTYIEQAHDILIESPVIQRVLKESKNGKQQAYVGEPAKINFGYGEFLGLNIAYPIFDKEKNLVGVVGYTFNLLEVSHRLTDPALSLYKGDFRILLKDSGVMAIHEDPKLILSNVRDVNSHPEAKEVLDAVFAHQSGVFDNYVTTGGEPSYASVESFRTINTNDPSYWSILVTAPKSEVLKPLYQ
Protocol: as §1
(§2) To evaluate whether these potential Tlp11-LBD homologues could bind to methyl pyruvate, we conducted a structural analysis of the LBDs of six chemoreceptors from C. coli, H. equorum, H. himalayensis, H. mesocricetorum, H. ganmani, and C. upsaliensis using Alphafold 2. […]

[2] = biological target: Tlp11-LBD homologue (WP_115552006.1, residues 31-329) (Helicobacter ganmani, UniProt A0A3D8IAJ9); test: MST of Tlp11-LBD homologue; type: binding; settings: H. ganmani LBD
Tlp11-LBD homologue (WP_115552006.1, residues 31-329), sequence (A0A3D8IAJ9 entry or part of it): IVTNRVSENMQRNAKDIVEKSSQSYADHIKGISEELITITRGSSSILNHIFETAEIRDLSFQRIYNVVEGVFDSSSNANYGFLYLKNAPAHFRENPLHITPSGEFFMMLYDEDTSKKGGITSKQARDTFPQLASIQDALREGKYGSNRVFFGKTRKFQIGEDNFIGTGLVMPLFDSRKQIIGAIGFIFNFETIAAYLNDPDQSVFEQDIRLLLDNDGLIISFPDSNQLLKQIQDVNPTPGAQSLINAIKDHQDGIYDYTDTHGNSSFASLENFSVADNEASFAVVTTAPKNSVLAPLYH
Protocol: as §1, §2

[3] = test system: Tlp11[1-342]-Tar[200-553] (Tlp342Tar200); test: Microfluidic chemotaxis of E. coli expressing hybrid chemoreceptor Tlp342Tar200; type: cell-based, E. coli VS188; settings: microfluidic device, 50 min
Protocol: The E. coli cells expressing hybrid chemoreceptor and GFP were grown in tryptone broth, up to an OD600 of 0.55, at 34°C, with shaking at 250 rpm. The cells were harvested by means of centrifugation at 5,000 rpm, washed twice with Tethering Buffer (10 mM KH2PO4, 10 mM K2HPO4, and 0.1 mM EDTA, pH 7.0), and resuspended in Tethering Buffer such that an OD600 of 5.5 was attained. The chemotactic responses of E. coli cells to the compounds were measured using a microfluidic device ([Si et al., 2012]). The collected E. coli cells were added to the sink pores of the device and allowed to freely diffuse into the observation channel for 40 min. Subsequently, the compound solution was added to the source pores, to establish a concentration gradient gradually in the observation channel of the device. Fluorescence intensity in the observation channel was detected using an LSM 800 laser scanning confocal microscope (Zeiss, Germany). Data were analyzed using ImageJ software.
To determine whether methyl pyruvate stimulates transmembrane signaling through Tlp11-LBD, we fused C. jejuni ATCC 33560 Tlp11-LBD with the cytoplasmic region of the E. coli chemoreceptor Tar to construct Tlp11-Tar hybrid chemoreceptors (Figure 3A). Five hybrid receptors with different fusion positions in the second transmembrane helix (TM2) were obtained: Tlp11[1-342]-Tar[200-553] (Tlp342Tar200), Tlp11[1-343]-Tar[200-553] (Tlp343Tar200), Tlp11[1-346]-Tar[204-553] (Tlp346Tar204), Tlp11[1-347]-Tar[204-553] (Tlp347Tar204), and Tlp11[1-348]-Tar[204-553] (Tlp348Tar204) (Supplementary Figure S5A). To verify the activities of these hybrid chemoreceptors, we expressed each protein as a chimera in green fluorescent protein (GFP)-labeled E. coli VS188 without any other chemoreceptors, such that each hybrid receptor served as the only chemoreceptor in the E. coli. […] These chemotactic responses triggered by glucose through the phosphotransferase system are independent of the chemoreceptor LBD ([Neumann et al., 2012]). […] Thus, we used this hybrid receptor for subsequent chemotaxis measurements.

[4] = test system: C. jejuni WT NCTC 11168 cells; type: cell-based, Campylobacter jejuni; settings: WT NCTC 11168 cells; microfluidic device, 30 min

COC(=O)C(C)=O [methyl pyruvate, Methyl pyruvate]
Kd (binding curve fit) (Tlp11-LBD T320A): unable to obtain fitted Kd values | Kd [1]: 340 ± 43 µM | Kd [2]: 1600 ± 200 µM | chemotactic response of E. coli expressing Tlp342Tar200 as the sole receptor [3]: strong attractant response | chemotactic response [4]: failed to show any chemotaxis
